The subject of one assay is EpiSCs. Put plainly: Conversion of EpiSCs to mESC-like state by chemical compounds (colony morphology, ALP, selection). Type of assay: cell-based, murine. The conditions noted are these: for effect on EpiSCs under mESC culture condition supplemented with LIF: feeder cells, 0.5 μM A-83-01, 0.5 μM PD0325901, 0.1 μM PD173074, 3 μM CHIR99021 where present.
The next assay deals with riPSCs. The experiment in a line: Maintaining the pluripotency of riPSCs in culture with small molecule combinations. Conditions: 0.1 μM, added to the combination of PD0325901 and CHIR99021. Type of assay: cell-based, rat. The procedure: FIG. 5A-B. The effects of different small molecule combinations on maintaining the pluripotency of riPSCs in culture. riPSCs were trypsinized into single cells and seeded into 6-well plate at the density of 10^3 cells per well and treated with different inhibitor combinations. Five days latter, ALP staining was performed to visualize the riPSC colonies (A). The ALP positive colonies for each condition were counted from ten random 40× visual fields and the relative colony number was summarized in (B).
WB-F344, a diploid rat liver progenitor cell line (Grisham et al., Proc Soc Exp Biol Med 204, 270-279 (1993)), were transduced with Oct4, Sox2 and Klf4 by retroviruses and then split onto MEF feeder cells in the conventional mESC medium. Compact and alkaline phosphatase (ALP) positive ESC-like colonies were observed 10 days after transduction (the efficiency is about 0.4%) (FIG. 1A). […] Given the notion that small molecules can inhibit key differentiation-inducing pathways, we and others have previously identified and used small molecules to support mESC self-renewal in a more robust manner (Schugar et al., Gene Ther 15, 126-135 (2008); Xu et al., Nat Biotechnol 20, 1261-1264 (2002)). […]

In another assay the test system is BMP receptors. Conditions: Tojo et al., 2005; cited from earlier work.

Procedure for EpiSCs: EpiSCs differentiated in conventional mESC growth medium supplemented with LIF (bottom left); EpiSCs differentiated in conventional mESC growth medium supplemented with LIF and 0.5 μM MEK inhibitor PD0325901, 0.1 μM FGFR inhibitor PD173074 and 3 μM GSK3 inhibitor CHIR99021 (m/MFGi) (bottom right). […] EpiSCs were trypsinized to single cells, and plated on feeder cells under the mESC self-renewal condition with supplements of the indicated chemical compounds for about 4 days to induce conversion, followed by another 4 days of selection. The culture was subsequently replated and further selected and expanded for another two weeks, during which time stable clones were picked.
To test this hypothesis, EpiSCs were trypsinized to single cells and plated under mESC self-renewal conditions, based on the notion that “converted” mESC-like cells within EpiSC colonies would be captured/selected and expanded under the conditions that promote self-renewal of mESCs but induce differentiation of EpiSCs. […] Given that the “spontaneous” conversion from EpiSCs to mESCs might be very inefficient, a stronger and more stringent differential self-renewal promoting and differentiation inducing condition might be required to select/capture and expand those “rare” converted mESC-like cells from EpiSCs (e.g. achieving cleaner phenotypic distinction and minimizing the overgrowth of differentiated EpiSCs).
EpiSCs (line EpiSC-5, male) were maintained on irradiated CF1 MEFs in human ESC medium supplemented with 10 ng/ml bFGF as described previously (Tesar et al., Nature 448, 196-199, 2007). EpiSCs were passaged every 3-4 days with 1 mg/ml collagenase type IV (Invitrogen). The R1 mESCs were cultured on irradiated CF1 MEFs with conventional mESC growth media, which consist of Knockout DMEM (Invitrogen) supplemented with 20% KSR (Invitrogen), 0.1 mM 2-ME (Sigma-Aldrich), 2 mM L-glutamine (Invitrogen), 0.1 mM NEAA (Invitrogen), and 10^3 units/ml recombinant murine leukemia inhibitory factor (LIF) (ESGRO, Millipore). The mESCs and converted cells were passaged every 3 days as a single cell suspension using 0.05% trypsin/EDTA and seeded at 1.0×10^4 cells per cm^2 for routine culture.

Take `Cc1c[nH]c(-c2cnc(NCCNc3ccc(C#N)cn3)nc2-c2ccc(Cl)cc2Cl)n1` [CHIR99021]: the “effect of adding CHIR99021 to the 2PD/LIF condition” value in the assay with EpiSCs (3 μM CHIR99021) is “did not promote or capture the conversion of EpiSCs to mESC-like state”.
For `CCN(CC)CCCCNc1ncc2cc(-c3cc(OC)cc(OC)c3)c(NC(=O)NC(C)(C)C)nc2n1` [PD173074], the “effect of including PD173074 in medium” value in the assay on riPSCs is given as “didn't show further benefit”.
For `N[C@@H]1C[C@H]1c1ccccc1` [parnate], the “effect on EpiSCs under mESC culture condition supplemented with LIF” value in the assay with EpiSCs was “form more compact and domed colonies that express ALP”. For the same compound, the “EpiSCs that formed small and compact colonies” value with EpiSCs (four days of 2 μM parnate treatment, mESC growth condition) is recorded as 70-80%. The “cells that survived the selection as domed and ALP positive colonies” value in the assay with EpiSCs (parnate-treated cells selected with 2PD/LIF) is on record as “roughly 20%”.
For the compound `Cc1cccc(-c2nn(C(=S)Nc3ccccc3)cc2-c2ccnc3ccccc23)n1` [A-83-01, 3-(6-Methyl-2-pyridinyl)-N-phenyl-4-(4-quinolinyl)-1H-pyrazole-1-carbothioamide], the “cross inhibitory effect on the BMP receptors” value in the assay on BMP receptors was “no cross inhibitory effect”. In addition, the “effect on EpiSCs under EpiSC/hESC culture condition supplemented with bFGF” value in the assay with EpiSCs (0.5 μM) is listed as “induced rapid differentiation of EpiSCs”. In addition, the “colonies that could self-renew and maintain ALP activity” value with EpiSCs (A-83-01 treated colonies exposed to 2PD/LIF condition for selection) was “more than 50%”. In addition, in the assay with EpiSCs, the “effect on EpiSCs under mESC culture condition supplemented with LIF” value is “form more compact and domed colonies that resemble mESC colony morphology and express ALP”.

These data come from US9695395B2, “Generation and maintenance of stem cells” (The Scripps Research Institute, priority 2008, dated 2017).
